Measurements published in patent US20220218852A1, “NOVEL RADIOLABELLED CXCR4-TARGETING COMPOUNDS FOR DIAGNOSIS AND THERAPY” (PROVINCIAL HEALTH SERVICES AUTHORITY, priority 2019, published 2022).
Where two headings read alike, the source gives them in different places. Positions of bridges follow the written chain, without caps; N, C: chain ends. Non-standard residues stand in square brackets, D forms with d. Residues, ends and D or L forms follow the SMILES beside them. Groups on a side chain read outwards from the residue. *: point of attachment. DOTA = O=C(O)CN1CCN(CC(=O)O)CCN(CC(=O)*)CCN(CC(=O)O)CC1; 2Nal = N[C@@H](Cc1ccc2ccccc2c1)C(=O)O; Lys(iPr) = CC(C)NCCCC[C@H](N)C(=O)O

Tests used:
Format in all cases: in vivo
[1] = test system: Jeko1 mantle cell lymphoma xenografts; experiment: Biodistribution in Jeko1 tumor-bearing mice
Protocol: (§1) For Daudi, Z138, GRANTA519 and Jeko1 xenografts, male NOD.Cg-Rag1^tm1MomII2rg^tm1Wjl/SzJ (NRG) mice were subcutaneously inoculated on the left flank with 5×10^6 cells (100 μL; 1:1 ratio of PBS/Matrigel) and tumors were grown to a size of 200-500 mm^3. For PC-3 xenografts, male NOD.Cg-Rag1^tm1MomII2rg^tm1Wjl/SzJ (NRG) mice were subcutaneously inoculated on the left flank with 5×10^6 PC-3 cells (100 μL; 1:1 ratio of PBS/Matrigel) and tumors were grown to a size of 200-400 mm^3.
(§2) The mice were euthanized via CO2 inhalation while anesthetized with isoflurane. Tissues were harvested, washed in PBS, blotted dry, weighed, and measured on a Hidex AMG Automatic Gamma Counter.

[2] = Biodistribution in Jeko1 tumor-bearing mice; settings: male, NOD.Cg-Rag1^tm1MomII2rg^tm1Wjl/SzJ (NRG), mouse, iv, total radioactivity
Protocol: as §1, §2

[3] = Biodistribution in PC3 tumor-bearing mice; settings: male, NOD.Cg-Rag1^tm1MomII2rg^tm1Wjl/SzJ (NRG), mouse, iv, total radioactivity
Protocol: as §1, §2

[4] = test system: PC3 prostate adenocarcinoma xenografts; experiment: Biodistribution in PC3 tumor-bearing mice
Protocol: as §1, §2

[5] = 1 h blocked (7.5 μg LY2510924 i.p.)
[6] = adrenals, 1 h, read-out: Biodistribution Adrenals
[7] = adrenals, 1 h blocked (7.5 μg LY2510924 i.p.), read-out: Biodistribution Adrenals
[8] = bone, 1 h, read-out: Biodistribution Bone
[9] = bone, 1 h blocked (7.5 μg LY2510924 i.p.), read-out: Biodistribution Bone
[10] = brain, 1 h, read-out: Biodistribution Brain
[11] = brain, 1 h blocked (7.5 μg LY2510924 i.p.), read-out: Biodistribution Brain
[12] = fat, 1 h, read-out: Biodistribution Fat
[13] = fat, 1 h blocked (7.5 μg LY2510924 i.p.), read-out: Biodistribution Fat
[14] = heart, 1 h, read-out: Biodistribution Heart
[15] = heart, 1 h blocked (7.5 μg LY2510924 i.p.), read-out: Biodistribution Heart
[16] = intestine, 1 h, read-out: Biodistribution Intestine
[17] = intestine, 1 h blocked (7.5 μg LY2510924 i.p.), read-out: Biodistribution Intestine
[18] = kidney, 1 h, read-out: Biodistribution Kidney
[19] = kidney, 1 h blocked (7.5 μg LY2510924 i.p.), read-out: Biodistribution Kidney
[20] = liver, 1 h, read-out: Biodistribution Liver
[21] = liver, 1 h blocked (7.5 μg LY2510924 i.p.), read-out: Biodistribution Liver
[22] = lung, 1 h, read-out: Biodistribution Lung
[23] = lung, 1 h blocked (7.5 μg LY2510924 i.p.), read-out: Biodistribution Lung
[24] = muscle, 1 h, read-out: Biodistribution Muscle
[25] = muscle, 1 h blocked (7.5 μg LY2510924 i.p.), read-out: Biodistribution Muscle
[26] = pancreas, 1 h, read-out: Biodistribution Pancreas
[27] = pancreas, 1 h blocked (7.5 μg LY2510924 i.p.), read-out: Biodistribution Pancreas
[28] = spleen, 1 h, read-out: Biodistribution Spleen
[29] = spleen, 1 h blocked (7.5 μg LY2510924 i.p.), read-out: Biodistribution Spleen
[30] = stomach, 1 h, read-out: Biodistribution Stomach
[31] = stomach, 1 h blocked (7.5 μg LY2510924 i.p.), read-out: Biodistribution Stomach
[32] = testes, 1 h, read-out: Biodistribution Testes
[33] = testes, 1 h blocked (7.5 μg LY2510924 i.p.), read-out: Biodistribution Testes

## CC(C)NCCCC[C@@H]1NC(=O)[C@H](Cc2ccc(O)cc2)NC(=O)[C@H](Cc2ccccc2)NC(=O)CC[C@H](C(=O)N[C@@H](CCCCNC(C)C)C(=O)N[C@@H](CCCCNC(=O)[C@H](CCC(=O)O)NC(=O)[C@H](CCC(=O)O)NC(=O)[C@H](CCC(=O)O)NC(=O)CN2CCN(CC(=O)O)CCN(CC(=O)O)CCN(CC(=O)O)CC2)C(N)=O)NC(=O)CNC(=O)[C@H](Cc2ccc3ccccc3c2)NC(=O)[C@@H](CCCNC(=N)N)NC1=O [[^68Ga]Ga-BL02, metal not drawn] (FY[Lys(iPr)][dR][2Nal]G[dE][Lys(iPr)]K([Glu-Glu-Glu-DOTA])-NH2; lactam N-7)
[1]; 1 h
  Ratio Tumor: Blood: 31.30
  Ratio Tumor: Bone: 37.23
  Ratio Tumor: Liver: 15.41
  Ratio Tumor: Lung: 15.76
  Ratio Tumor: Muscle: 180.39
  Ratio Tumor: Spleen: 19.78
[1]; [5]
  Ratio Tumor: Blood: 1.74
  Ratio Tumor: Bone: 8.83
  Ratio Tumor: Liver: 2.59
  Ratio Tumor: Lung: 1.48
  Ratio Tumor: Muscle: 8.71
  Ratio Tumor: Spleen: 3.10
[2]; Jeko1 tumor, 1 h, read-out: Biodistribution Jeko1 (tumor)
  tissue uptake at 1 h: 11.4 %ID/g
[2]; Jeko1 tumor, 1 h blocked (7.5 μg LY2510924 i.p.), read-out: Biodistribution Jeko1 (tumor)
  tissue uptake at 1 h: 1.32 %ID/g
[2]; [6]
  tissue uptake at 1 h: 0.23 %ID/g
[2]; [7]
  tissue uptake at 1 h: 0.47 %ID/g
[2]; [8]
  tissue uptake at 1 h: 0.47 %ID/g
[2]; [9]
  tissue uptake at 1 h: 0.18 %ID/g
[2]; [10]
  tissue uptake at 1 h: 0.02 %ID/g
[2]; [11]
  tissue uptake at 1 h: 0.03 %ID/g
[2]; [12]
  tissue uptake at 1 h: 0.05 %ID/g
[2]; [13]
  tissue uptake at 1 h: 0.14 %ID/g
[2]; [14]
  tissue uptake at 1 h: 0.13 %ID/g
[2]; [15]
  tissue uptake at 1 h: 0.35 %ID/g
[2]; [16]
  tissue uptake at 1 h: 0.19 %ID/g
[2]; [17]
  tissue uptake at 1 h: 0.44 %ID/g
[2]; [18]
  tissue uptake at 1 h: 3.32 %ID/g
[2]; [19]
  tissue uptake at 1 h: 8.91 %ID/g
[2]; [20]
  tissue uptake at 1 h: 0.77 %ID/g
[2]; [21]
  tissue uptake at 1 h: 0.55 %ID/g
[2]; [22]
  tissue uptake at 1 h: 0.74 %ID/g
[2]; [23]
  tissue uptake at 1 h: 1.05 %ID/g
[2]; [24]
  tissue uptake at 1 h: 0.06 %ID/g
[2]; [25]
  tissue uptake at 1 h: 0.2 %ID/g
[2]; [26]
  tissue uptake at 1 h: 0.09 %ID/g
[2]; [27]
  tissue uptake at 1 h: 0.26 %ID/g
[2]; [28]
  tissue uptake at 1 h: 0.7 %ID/g
[2]; [29]
  tissue uptake at 1 h: 0.57 %ID/g
[2]; [30]
  tissue uptake at 1 h: 0.06 %ID/g
[2]; [31]
  tissue uptake at 1 h: 0.13 %ID/g
[2]; [32]
  tissue uptake at 1 h: 0.14 %ID/g
[2]; [33]
  tissue uptake at 1 h: 0.29 %ID/g
[2]; whole blood, 1 h, read-out: Biodistribution Blood
  tissue uptake at 1 h: 0.38 %ID/g
[2]; whole blood, 1 h blocked (7.5 μg LY2510924 i.p.), read-out: Biodistribution Blood
  tissue uptake at 1 h: 1.08 %ID/g
[3]; PC3 tumor, 1 h, read-out: Biodistribution PC3 (tumor)
  tissue uptake at 1 h: 1.83 %ID/g
[3]; PC3 tumor, 1 h blocked (7.5 μg LY2510924 i.p.), read-out: Biodistribution PC3 (tumor)
  tissue uptake at 1 h: 0.75 %ID/g
[3]; PC3 tumor, read-out: Biodistribution PC3 (tumor)
  tissue uptake at 2 h: 1.41 %ID/g
[3]; [6]
  tissue uptake at 1 h: 0.18 %ID/g
[3]; [7]
  tissue uptake at 1 h: 0.18 %ID/g
[3]; adrenals, read-out: Biodistribution Adrenals
  tissue uptake at 2 h: 0.1 %ID/g
[3]; blood, 1 h, read-out: Biodistribution Blood
  tissue uptake at 1 h: 0.33 %ID/g
[3]; blood, 1 h blocked (7.5 μg LY2510924 i.p.), read-out: Biodistribution Blood
  tissue uptake at 1 h: 0.54 %ID/g
[3]; blood, read-out: Biodistribution Blood
  tissue uptake at 2 h: 0.06 %ID/g
[3]; [8]
  tissue uptake at 1 h: 0.12 %ID/g
[3]; [9]
  tissue uptake at 1 h: 0.15 %ID/g
[3]; bone, read-out: Biodistribution Bone
  tissue uptake at 2 h: 0.11 %ID/g
[3]; [10]
  tissue uptake at 1 h: 0.01 %ID/g
[3]; [11]
  tissue uptake at 1 h: 0.02 %ID/g
[3]; brain, read-out: Biodistribution Brain
  tissue uptake at 2 h: 0.01 %ID/g
[3]; [12]
  tissue uptake at 1 h: 0.2 %ID/g
[3]; [13]
  tissue uptake at 1 h: 0.16 %ID/g
[3]; fat, read-out: Biodistribution Fat
  tissue uptake at 2 h: 0.01 %ID/g
[3]; [14]
  tissue uptake at 1 h: 0.14 %ID/g
[3]; [15]
  tissue uptake at 1 h: 0.21 %ID/g
[3]; heart, read-out: Biodistribution Heart
  tissue uptake at 2 h: 0.06 %ID/g
[3]; [16]
  tissue uptake at 1 h: 0.18 %ID/g
[3]; [17]
  tissue uptake at 1 h: 0.25 %ID/g
[3]; intestine, read-out: Biodistribution Intestine
  tissue uptake at 2 h: 0.14 %ID/g
[3]; [18]
  tissue uptake at 1 h: 3.6 %ID/g
[3]; [19]
  tissue uptake at 1 h: 3.75 %ID/g
[3]; kidney, read-out: Biodistribution Kidney
  tissue uptake at 2 h: 4.67 %ID/g
[3]; [20]
  tissue uptake at 1 h: 0.55 %ID/g
[3]; [21]
  tissue uptake at 1 h: 0.5 %ID/g
[3]; liver, read-out: Biodistribution Liver
  tissue uptake at 2 h: 0.73 %ID/g
[3]; [22]
  tissue uptake at 1 h: 0.5 %ID/g
[3]; [23]
  tissue uptake at 1 h: 0.6 %ID/g
[3]; lung, read-out: Biodistribution Lung
  tissue uptake at 2 h: 0.33 %ID/g
[3]; [24]
  tissue uptake at 1 h: 0.08 %ID/g
[3]; [25]
  tissue uptake at 1 h: 0.11 %ID/g
[3]; muscle, read-out: Biodistribution Muscle
  tissue uptake at 2 h: 0.03 %ID/g
[3]; [26]
  tissue uptake at 1 h: 0.1 %ID/g
[3]; [27]
  tissue uptake at 1 h: 0.12 %ID/g
[3]; pancreas, read-out: Biodistribution Pancreas
  tissue uptake at 2 h: 0.04 %ID/g
[3]; [28]
  tissue uptake at 1 h: 0.28 %ID/g
[3]; [29]
  tissue uptake at 1 h: 0.37 %ID/g
[3]; spleen, read-out: Biodistribution Spleen
  tissue uptake at 2 h: 0.25 %ID/g
[3]; [30]
  tissue uptake at 1 h: 0.05 %ID/g
[3]; [31]
  tissue uptake at 1 h: 0.06 %ID/g
[3]; stomach, read-out: Biodistribution Stomach
  tissue uptake at 2 h: 0.06 %ID/g
[3]; [32]
  tissue uptake at 1 h: 0.18 %ID/g
[3]; [33]
  tissue uptake at 1 h: 0.35 %ID/g
[3]; testes, read-out: Biodistribution Testes
  tissue uptake at 2 h: 0.06 %ID/g
[4]; 1 h
  Ratio Tumor: Blood: 5.74
  Ratio Tumor: Bone: 15.68
  Ratio Tumor: Liver: 3.31
  Ratio Tumor: Lung: 3.71
  Ratio Tumor: Muscle: 23.74
  Ratio Tumor: Spleen: 6.62
[4]; [5]
  Ratio Tumor: Blood: 1.56
  Ratio Tumor: Bone: 6.16
  Ratio Tumor: Liver: 1.62
  Ratio Tumor: Lung: 1.36
  Ratio Tumor: Muscle: 7.68
  Ratio Tumor: Spleen: 2.16
[4]; 2h
  Ratio Tumor: Blood: 25.33
  Ratio Tumor: Bone: 13.96
  Ratio Tumor: Liver: 1.99
  Ratio Tumor: Lung: 4.36
  Ratio Tumor: Muscle: 55.01
  Ratio Tumor: Spleen: 5.63
